Source: US8993282B2, “Carotenoid fermentation method” (JX Nippon Oil & Energy Corporation, priority 2008, dated 2015)

Tested on: Paracoccus carotinifaciens strain E-396 (FERM BP-4283)
Assay: Glutamate concentration series, 5 L fermentation tank culture, carotenoid by HPLC
Type: cell-based
Settings: for Produced carotenoid concentration, 3-Hydroxyechinenone / Produced carotenoid concentration, Adonixanthin / Produced carotenoid concentration, Astaxanthin / Produced carotenoid concentration, Asteroidenone / Produced carotenoid concentration, Canthaxanthin / Produced carotenoid concentration, Echinenone / Produced carotenoid concentration, Phoenicoxanthin / Produced carotenoid concentration, Total Carotenoid / Produced carotenoid concentration, Zeaxanthin / Produced carotenoid concentration, β-Carotene / Produced carotenoid concentration, β-Cryptoxanthin: 100 hours
Method: In the examples, carotenoids were quantified by high performance liquid chromatography (HPLC) as follows.
Two columns of Wakosil-II 5 SIL-100 (φ4.6×250 mm) (Wako Pure Chemical Industries, Ltd., Japan) were connected to each other for use as a column. Elution was performed by flowing an n-hexane-tetrahydrofuran-methanol mixed solution (40:20:1), which was a mobile phase, at a flow rate of 1.0 mL/minute at a constant temperature around room temperature. The measurement was performed as follows. Samples were each dissolved in tetrahydrofuran and then diluted 100-fold with the mobile phase. Each dilution was injected in a volume of 20 μL. The column eluate was detected at a wavelength of 470 nm. As a reference for quantification, astaxanthin (SIGMA, Cat. No. A9335) was used. The astaxanthin concentration of the reference solution was determined using the following equation after measuring the absorbance (A) of the reference solution at 477 nm and the area percentage % (B) of the astaxanthin peak at the time of HPLC analysis under the above conditions. Astaxanthin concentration (mg/L)=A/2150×B×100
A medium of the following composition (glucose 20 g/L, filtered corn steep liquor 5 g/L, potassium dihydrogenphosphate 0.54 g/L, dipotassium hydrogenphosphate 12-hydrate 2.78 g/L, calcium chloride dihydrate 5.0 g/L, magnesium sulfate 7-hydrate 0.7 g/L, iron sulfate 7-hydrate 3.0 g/L, alcohol-based defoaming agent 0.2 g/L., pH 7.5) was dispensed in 100 ml volumes into 500 mL cotton-plugged Erlenmeyer flasks and sterilized in an autoclave at 121° C. for 15 minutes to prepare a flask medium for seed culture in 8 flasks.
Next, a medium of the following composition (glucose 40 g/L, corn steep liquor 30 g/L, ammonium sulfate 0.5 g/L, potassium dihydrogenphosphate 2.25 g/L, disodium hydrogenphosphate 12-hydrate 5.7 g/L, calcium chloride dihydrate 0.1 g/L, magnesium sulfate 7-hydrate 0.5 g/L, iron sulfate 7-hydrate 5 g/L, alcohol-based defoaming agent 0.5 g/L) was dispensed in 2.0 L volumes into 5 L fermentation tanks (8 tanks in total). To these tanks, monosodium L-glutamate monohydrate was added at 0, 1, 5, 15, 30, 50, 100 and 200 mmol/L, respectively, followed by sterilization in an autoclave at 121° C. for 30 minutes.
A loopful of Paracoccus carotinifaciens strain E-396 (FERM BP-4283) was inoculated into the flask medium for seed culture and then cultured with rotary shaking at 29° C. for 2 days at 100 rpm. The resulting culture solution was then inoculated in 80 mL, volumes into the individual fermentation tanks, followed by aerobic culture at 29° C. at an aeration volume of 1 vvm for 100 hours. To maintain a pH of 7.2 during culture, the pH was continuously controlled with 15% aqueous ammonia. Glucose was added in an amount of 30 g on day 1 and day 2 of culture to prevent glucose depletion. In addition, the minimum number of agitation rotations was set to 200 rpm, and the number of agitation rotations was varied such that the dissolved oxygen concentration in the culture solution was maintained at 2 to 4 ppm. Bubbling was detected with a bubble sensor and suppressed by automatic addition of an alcohol-based defoaming agent.
At the completion of culture, each culture solution was measured for its carotenoid concentration by HPLC.

[1] = Glutamic acid concentration 1 mmol/L
[2] = Glutamic acid concentration 5 mmol/L
[3] = Glutamic acid concentration 15 mmol/L
[4] = Glutamic acid concentration 30 mmol/L
[5] = Glutamic acid concentration 50 mmol/L
[6] = Glutamic acid concentration 100 mmol/L
[7] = Glutamic acid concentration 200 mmol/L

Q: What does the source list for `N[C@@H](CCC(=O)O)C(=O)O` [Glutamic acid, glutamic acid]?
A: Produced carotenoid concentration, 3-Hydroxyechinenone [1]: 0.2 mg/L; Produced carotenoid concentration, Adonixanthin [1]: 7.8 mg/L; Produced carotenoid concentration, Astaxanthin [1]: 18.3 mg/L; Produced carotenoid concentration, Asteroidenone [1]: 0.4 mg/L; Produced carotenoid concentration, Canthaxanthin [1]: 2.0 mg/L; Produced carotenoid concentration, Echinenone [1]: 1.6 mg/L; Produced carotenoid concentration, Phoenicoxanthin [1]: 5.1 mg/L; Produced carotenoid concentration, Total Carotenoid [1]: 39.9 mg/L; Produced carotenoid concentration, Zeaxanthin [1]: 0.17 mg/L; Produced carotenoid concentration, β-Carotene [1]: 4.3 mg/L; Produced carotenoid concentration, β-Cryptoxanthin [1]: 0.05 mg/L; Produced carotenoid concentration, 3-Hydroxyechinenone [2]: 0.3 mg/L; Produced carotenoid concentration, Adonixanthin [2]: 7.8 mg/L; Produced carotenoid concentration, Astaxanthin [2]: 27.3 mg/L; Produced carotenoid concentration, Asteroidenone [2]: 0.4 mg/L; Produced carotenoid concentration, Canthaxanthin [2]: 3.7 mg/L; Produced carotenoid concentration, Echinenone [2]: 1.9 mg/L; Produced carotenoid concentration, Phoenicoxanthin [2]: 7.8 mg/L; Produced carotenoid concentration, Total Carotenoid [2]: 55.7 mg/L; Produced carotenoid concentration, Zeaxanthin [2]: 0.18 mg/L; Produced carotenoid concentration, β-Carotene [2]: 6.2 mg/L; Produced carotenoid concentration, β-Cryptoxanthin [2]: 0.07 mg/L; Produced carotenoid concentration, 3-Hydroxyechinenone [3]: 0.3 mg/L; Produced carotenoid concentration, Adonixanthin [3]: 9.6 mg/L; Produced carotenoid concentration, Astaxanthin [3]: 30.8 mg/L; Produced carotenoid concentration, Asteroidenone [3]: 0.6 mg/L; Produced carotenoid concentration, Canthaxanthin [3]: 3.0 mg/L; Produced carotenoid concentration, Echinenone [3]: 2.1 mg/L; Produced carotenoid concentration, Phoenicoxanthin [3]: 7.2 mg/L; Produced carotenoid concentration, Total Carotenoid [3]: 59.7 mg/L; Produced carotenoid concentration, Zeaxanthin [3]: 0.19 mg/L; Produced carotenoid concentration, β-Carotene [3]: 5.8 mg/L; Produced carotenoid concentration, β-Cryptoxanthin [3]: 0.07 mg/L; Produced carotenoid concentration, 3-Hydroxyechinenone [4]: 0.3 mg/L; Produced carotenoid concentration, Adonixanthin [4]: 9.3 mg/L; Produced carotenoid concentration, Astaxanthin [4]: 30.3 mg/L; Produced carotenoid concentration, Asteroidenone [4]: 0.6 mg/L; Produced carotenoid concentration, Canthaxanthin [4]: 3.1 mg/L; Produced carotenoid concentration, Echinenone [4]: 2.2 mg/L; Produced carotenoid concentration, Phoenicoxanthin [4]: 7.4 mg/L; Produced carotenoid concentration, Total Carotenoid [4]: 59.4 mg/L; Produced carotenoid concentration, Zeaxanthin [4]: 0.20 mg/L; Produced carotenoid concentration, β-Carotene [4]: 5.9 mg/L; Produced carotenoid concentration, β-Cryptoxanthin [4]: 0.08 mg/L; Produced carotenoid concentration, 3-Hydroxyechinenone [5]: 0.4 mg/L; Produced carotenoid concentration, Adonixanthin [5]: 10.8 mg/L; Produced carotenoid concentration, Astaxanthin [5]: 30.9 mg/L; Produced carotenoid concentration, Asteroidenone [5]: 0.9 mg/L; Produced carotenoid concentration, Canthaxanthin [5]: 2.0 mg/L; Produced carotenoid concentration, Echinenone [5]: 2.3 mg/L; Produced carotenoid concentration, Phoenicoxanthin [5]: 6.4 mg/L; Produced carotenoid concentration, Total Carotenoid [5]: 58.9 mg/L; Produced carotenoid concentration, Zeaxanthin [5]: 0.21 mg/L; Produced carotenoid concentration, β-Carotene [5]: 4.9 mg/L; Produced carotenoid concentration, β-Cryptoxanthin [5]: 0.07 mg/L; Produced carotenoid concentration, 3-Hydroxyechinenone [6]: 0.3 mg/L; Produced carotenoid concentration, Adonixanthin [6]: 9.2 mg/L; Produced carotenoid concentration, Astaxanthin [6]: 28.6 mg/L; Produced carotenoid concentration, Asteroidenone [6]: 0.6 mg/L; Produced carotenoid concentration, Canthaxanthin [6]: 2.8 mg/L; Produced carotenoid concentration, Echinenone [6]: 2.0 mg/L; Produced carotenoid concentration, Phoenicoxanthin [6]: 7.0 mg/L; Produced carotenoid concentration, Total Carotenoid [6]: 56.2 mg/L; Produced carotenoid concentration, Zeaxanthin [6]: 0.18 mg/L; Produced carotenoid concentration, β-Carotene [6]: 5.5 mg/L; Produced carotenoid concentration, β-Cryptoxanthin [6]: 0.06 mg/L; Produced carotenoid concentration, 3-Hydroxyechinenone [7]: 0.3 mg/L; Produced carotenoid concentration, Adonixanthin [7]: 7.6 mg/L; Produced carotenoid concentration, Astaxanthin [7]: 23.5 mg/L; Produced carotenoid concentration, Asteroidenone [7]: 0.5 mg/L; Produced carotenoid concentration, Canthaxanthin [7]: 2.4 mg/L; Produced carotenoid concentration, Echinenone [7]: 1.7 mg/L; Produced carotenoid concentration, Phoenicoxanthin [7]: 5.9 mg/L; Produced carotenoid concentration, Total Carotenoid [7]: 46.7 mg/L; Produced carotenoid concentration, Zeaxanthin [7]: 0.15 mg/L; Produced carotenoid concentration, β-Carotene [7]: 4.6 mg/L; Produced carotenoid concentration, β-Cryptoxanthin [7]: 0.05 mg/L; produced carotenoid concentration compared to the sample without glutamic acid (glutamic acid at concentrations from 1 to 200 mmol/L): higher produced carotenoid concentration
